This note sets out measurements from DBAASP.

What all share (assay): ≥ marks a high value that may be exact or a test limit, other limits are often not marked, values filed in µg/mL are converted to µM
For test [1], the system named is Bacillus subtilis ATCC 23857.
Test [2] has as its system Candida albicans ATCC 10231.
Test [3] concerns Escherichia coli ATCC 25922.
For test [4], the system named is Klebsiella aerogenes ATCC 13048.
Test [5] relates to Pseudomonas aeruginosa ATCC 9027.
Test [6] deals with Staphylococcus aureus ATCC 29737.
For test [7], the system named is Staphylococcus epidermidis ATCC 12222.
Test [8] relates to Streptococcus gordonii ATCC 10558.
Test [9] concerns Streptococcus gordonii DL1.
Test [10] relates to Streptococcus mutans ATCC 104495.
Test [11] concerns Streptococcus mutans ATCC 25175.
Test [12] concerns Streptococcus mutans T8.
The test system of test [13] is Streptococcus mutans UA140.
For test [14], the system named is Streptococcus mutans UA159.
Test [15] relates to Streptococcus mutans comD.
Test [16] has as its system Streptococcus salivarius K12.
In test [17] the test system is Streptococcus sanguinis ATCC 10556.
Test [18] deals with Streptococcus sanguinis NY101.
Test [19] has as its system Bacillus subtilis ATCC 6633.
Test [20] relates to Candida albicans ATCC 2002.
Test [21] concerns Pseudomonas fluorescens ATCC 13525.
Test [22] deals with Staphylococcus aureus ATCC 2592.
For test [23], the system named is Aspergillus fumigatus KCTC 4165.
For test [24], the system named is Bacillus subtilis KCTC 1918.
The subject of test [25] is Candida albicans TIMM 1768.
For test [26], the system named is Escherichia coli KCTC 1682.
The test system of test [27] is Pseudomonas aeruginosa KCTC 1637.
In test [28] the test system is Salmonella typhimurium KCTC 1926.
The test system of test [29] is Staphylococcus aureus KCTC 1621.
Test [30] deals with Streptococcus pyogenes KCTC 3096.
Test [31] deals with Candida albicans ATCC 36232.
For test [32], the system named is Corynebacterium diphtheriae ATCC 8024.
The test system of test [33] is Escherichia coli ATCC 2592.
The test system of test [34] is Micrococcus luteus ATCC 9341.
The test system of test [35] is Shigella flexneri ATCC 203.
The subject of test [36] is Staphylococcus aureus ATCC 6538.
In test [37] the test system is Staphylococcus aureus.
Test [38] has as its system Staphylococcus epidermidis ATCC 12228.

Each structure is given as a SMILES string. ≈ marks a conversion by molar mass, not a printed value.

As usually defined, the MIC is the lowest concentration found to suppress growth.

Take `CC(C)C[C@H](NC(=O)[C@H](CC(C)C)NC(=O)[C@H](CCCCN)NC(=O)[C@H](CCCCN)NC(=O)[C@H](CC(C)C)NC(=O)[C@H](CC(C)C)NC(=O)[C@H](CCCCN)NC(=O)[C@H](CCCCN)NC(=O)[C@H](CC(C)C)NC(=O)[C@@H](N)CC(C)C)C(=O)N[C@@H](CCCCN)C(=O)N[C@@H](CCCCN)C(N)=O` [LLKKLLKKLLKK]: the MIC in [1] is 21.4 µM (≈ 31.3 µg/mL); in test [2] it was 85.3 µM (≈ 125 µg/mL); in test [3], greater than 341 µM; in test [4], no less than 341 µM; in test [5] it was 43 µM (≈ 63 µg/mL); in test [6] it was no less than 341 µM. The same compound came in with an MIC in [7] of no less than 43 µM.
As for `CC(C)C[C@H](NC(=O)[C@H](C)NC(=O)[C@H](CCC(N)=O)NC(=O)[C@@H](NC(=O)[C@H](Cc1ccccc1)NC(=O)[C@H](CO)NC(=O)[C@H](CCCN=C(N)N)NC(=O)[C@H](CC(N)=O)NC(=O)[C@H](Cc1ccccc1)NC(=O)[C@H](CC(C)C)NC(=O)[C@H](CCCN=C(N)N)NC(=O)[C@H](Cc1ccccc1)NC(=O)[C@H](Cc1ccccc1)NC(=O)[C@@H](N)[C@@H](C)O)[C@@H](C)O)C(=O)NCC(=O)N[C@@H](CCCCN)C(=O)O` [TFFRLFNRSFTQALGK], the MIC in test [8] is no less than 64 µM; in test [9] it was no less than 60 µM; in [10], no less than 64 µM; in [11], no less than 60 µM; in [12], no less than 60 µM; in test [13] it was no less than 64 µM. The minimal inhibitory concentration (MIC) in test [14] is no less than 60 µM; in [15], no less than 60 µM; in test [16] it was no less than 64 µM; in test [17], no less than 64 µM; in test [18], no less than 60 µM.
Regarding `CC[C@H](C)[C@H](NC(=O)[C@H](C)NC(=O)[C@@H](NC(=O)[C@@H]1CCCN1C(=O)[C@H](CC(C)C)NC(=O)[C@@H](NC(=O)[C@H](CC(N)=O)NC(=O)[C@H](C)NC(=O)[C@H](C)NC(=O)[C@@H](NC(=O)[C@H](CCCCN)NC(=O)[C@H](CC(C)C)NC(=O)[C@H](C)NC(=O)[C@@H](NC(=O)CNC(=O)[C@H](Cc1ccccc1)NC(=O)[C@@H](N)Cc1ccccc1)[C@@H](C)O)[C@@H](C)CC)C(C)C)[C@@H](C)O)C(=O)N[C@H]1CSSC[C@@H](C(=O)O)NC(=O)[C@H](CCCCN)NC(=O)[C@H](CCCCN)NC(=O)[C@H](CC(C)C)NC(=O)[C@H]([C@@H](C)CC)NC(=O)[C@H](CCCCN)NC1=O` [FFGTALKIAANVLPTAICKILKKC], the minimal inhibitory concentration (MIC) in test [19] is 2.34 µM (≈ 6 µg/mL); in test [20], 19.5 µM (≈ 50 µg/mL); in [21], 31.2 µM (≈ 79.9 µg/mL); in test [22], 3.9 µM (≈ 9.99 µg/mL).
On to `CC[C@H](C)[C@H](NC(=O)[C@H](CCCCN)NC(=O)[C@H](CCCCN)NC(=O)[C@H](CC(C)C)NC(=O)[C@H](CCCCN)NC(=O)[C@H](CCC(=O)O)NC(=O)CN)C(=O)NCC(=O)N[C@@H](CCC(N)=O)C(=O)N[C@@H](CCCCN)C(=O)N[C@H](C(=O)N[C@@H](CCCCN)C(=O)N[C@@H](CCCCN)C(=O)N[C@@H](Cc1ccccc1)C(=O)N[C@@H](Cc1ccccc1)C(=O)N[C@@H](CCC(N)=O)C(=O)N[C@@H](CCCCN)C(=O)N[C@@H](CC(C)C)C(=O)O)[C@@H](C)CC` [GEKLKKIGQKIKKFFQKL], for which the minimum inhibitory concentration (MIC) in [23] was 25 µM (≈ 54 µg/mL); in test [24], 25 µM (≈ 54 µg/mL); in test [25] it was no less than 50 µM; in test [26] it was 25 µM (≈ 54 µg/mL); in test [27], 6.25 µM (≈ 13.5 µg/mL); in test [28] it was 12.5 µM (≈ 27 µg/mL). The MIC in [29] and in test [30] was 25 µM (≈ 54 µg/mL) each time.
On to `CC[C@H](C)[C@H](NC(=O)[C@H](CC(=O)O)NC(=O)[C@H](CS)NC(=O)[C@@H](NC(=O)[C@@H](N)C(C)C)[C@@H](C)O)C(=O)N[C@@H](CC(C)C)C(=O)N[C@@H](CO)C(=O)N[C@H](C(=O)N[C@@H](CCC(=O)O)C(=O)N[C@@H](C)C(=O)N[C@@H](CCCCN)C(=O)NCC(=O)N[C@H](C(=O)N[C@@H](CCCCN)C(=O)N[C@@H](CC(C)C)C(N)=O)C(C)C)C(C)C` [VTCDILSVEAKGVKL], for which the MIC in [19] was no less than 63.5 µM; in test [31] it was no less than 63.5 µM; in test [32], no less than 63.5 µM; in test [33], no less than 63.5 µM; in [34], no less than 63.5 µM; in test [5] it was greater than 63.5 µM. The MIC in [35] is no less than 63.5 µM; in test [36], greater than 63.5 µM; in [37] it was greater than 63.5 µM; in test [38], greater than 63.5 µM.
